The results in this text go back to patent US8288410B2, “3-substituted quinolinium and 7H-indolo[2,3-c]quinolinium salts as new antiinfectives” (Florida Agricultural and Mechanical University, priority 2008, dated 2012).

Molecules are shown by their SMILES. A value given as a limit tells only on which side of the number the result lay.

Data set [1] deals with Candida albicans ATTC 90028. The data set is described as follows: Antifungal susceptibility testing, Candida albicans. In kind it is cell-based. Conditions: for IC50: ATTC90028, Table 1, read-out: Ca IC50; for MFC: ATTC90028, Table 1, read-out: Ca MFC; for MIC: ATTC90028, Table 1, read-out: Ca MIC. The method, boiled down: (§1)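 Modified NCCLS broth microdilution, samples serially diluted from 20 μg/mL top concentration, inocula per 0.5 McFarland (C. albicans in SDB or RPMI 1640; C. neoformans in SDB; A. fumigatus in YM broth or RPMI-1640 + 5% Alamar Blue). IC50 from percent growth versus concentration; MIC read visually as lowest concentration without detectable growth.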

The subject of data set [2] is Vero Cells. Kind of data set: Cytotoxicity, Vero cells. In kind it is cell-based. As to conditions: Table 1.
The subject of data set [3] is Cryptococcus neoformans ATCC 90113. The data set is described as follows: Antifungal susceptibility testing, Cryptococcus neoformans. In kind it is cell-based. Conditions: for IC50: ATCC90113, Table 1, read-out: Cn IC50; for MFC: ATCC90113, Table 1, read-out: Cn MFC; for MIC: ATCC90113, Table 1, read-out: Cn MIC. The method, boiled down:
as §1

Data set [4] deals with Aspergillus fumigatus ATCC 90906. Kind of data set: Antifungal susceptibility testing, Aspergillus fumigatus. In kind it is cell-based. Conditions: for IC50: ATCC90906, Table 1, Aspergillus fumigatus, read-out: A fu IC50. An outline of the steps: as §1
The test system of data set [5] is MRSA. Kind of data set: Antibacterial susceptibility testing, MRSA. In kind it is cell-based, methicillin resistant Staphylococcus aureus. Conditions: Staphylococcus aureus; for IC50: Table 1, read-out: MRS IC50; for MFC: Table 1, read-out: MRS MFC; for MIC: Table 1, read-out: MRS MIC. An outline of the steps:
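Each plate carried growth (saline only), solvent and blank (media only) controls, and Ciprofloxacin was the drug control. Plates were read before and after final incubation. MIC, the lowest concentration showing no detectable growth, was judged visually, and IC50 was obtained by plotting percent growth against concentration.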

As a reminder, the melting point is the temperature of the solid-liquid transition. In general, IC50 refers to the concentration that inhibits the measured activity by half. A word on the MIC: it is the lowest concentration found to suppress growth. `FC(F)(F)c1ccccc1Sc1cc2ccccc2[n+](CCCCC[n+]2cc(Sc3ccccc3C(F)(F)F)cc3ccccc32)c1` [XYZ-IV-45] displayed a melting point of 175 to 176 °C. Also, in data set [1], the IC50 was more than 20 µg/mL, the MFC was more than 20 µg/mL and the minimal inhibitory concentration (MIC) was more than 20 µg/mL. Moreover, in data set [2], the “TC50 Vero Cells” value was “NC (NC = Not toxic at 10 μg/mL)”. In addition, in data set [3], the IC50 was 0.6 µg/mL, the MFC amounted to 20 µg/mL and the MIC worked out at 2.5 µg/mL. For the same compound, in data set [4], the “A fu MIC” value was 20 µg/mL and the IC50 was determined as 9 µg/mL. Further, in data set [5], the concentration for half-maximal inhibition (IC50) is 0.95 µg/mL, the MFC is more than 20 µg/mL and the MIC came to 5 µg/mL.
In turn, `FC(F)(F)c1ccccc1Sc1cc2ccccc2[n+](CCCCC[n+]2c3ccccc3cc3[nH]c4ccccc4c32)c1` [XYZ-IV-52] displayed a melting point of 154 to 156 °C. Further, in data set [1], the IC50 was more than 20 µg/mL, the MFC is more than 20 µg/mL and the MIC is more than 20 µg/mL. Moreover, the “TC50 Vero Cells” value in data set [2] is “NC (NC = Not toxic at 10 μg/mL)”. For the same compound, in data set [3], the IC50 was 4 µg/mL, the MFC was more than 20 µg/mL and the minimal inhibitory concentration (MIC) was 10 µg/mL. Moreover, in data set [4], the “A fu MIC” value came to 10 µg/mL and the IC50 is 5 µg/mL. Also, in data set [5], the IC50 is 2 µg/mL, the MFC was more than 20 µg/mL and the MIC is 5 µg/mL.
Regarding `FC(F)(F)c1cccc(Sc2cc3ccccc3[n+](CCCCC[n+]3cc(Sc4cccc(C(F)(F)F)c4)cc4ccccc43)c2)c1` [XYZ-IV-55], the melting point was in the range of 167 to 168 °C. Moreover, in data set [1], the half-inhibitory concentration (IC50) was 15 µg/mL, the MFC was more than 20 µg/mL and the minimal inhibitory concentration (MIC) was more than 20 µg/mL. The “TC50 Vero Cells” value in data set [2] is reported as “NC (NC = Not toxic at 10 μg/mL)”. Besides, in data set [3], the concentration for half-maximal inhibition (IC50) was determined as 0.95 µg/mL, the MFC turned out to be 20 µg/mL and the minimal inhibitory concentration (MIC) was 2.5 µg/mL. Moreover, the 50% inhibitory concentration (IC50) in data set [4] was 7.5 µg/mL. In data set [5], the IC50 is 0.8 µg/mL, the MFC came to 10 µg/mL and the minimum inhibitory concentration (MIC) amounted to 2.5 µg/mL.
